Data taken from patent US8987243B2, “11-(2-pyrrolidin-1-yl-ethoxy)-14,19-dioxa-5,7,26-triaza-tetracyclo[19.3.1.1(2,6).1(8,12)]heptacosa-maleate salt” (CTI Biopharma Corp., priority 2008, dated 2015).
Counter-ions that a name gives are not always drawn.

Columns and labels:
Assay type in all cases: physicochemical
[1] = Thermal gravimetric analysis (TGA); settings: for water lost in the first phase of the TGA: hydrochloride
Experimental: The samples of both hydrochloride (comparative) and maleate salts were subjected to thermal gravimetric analysis and differential scanning calorimetry under the following conditions. DSC data were collected on a TA Instruments Q2000 equipped with a 50 position auto-sampler. The instrument was calibrated for energy and temperature calibration using certified indium. Typically 0.5-3 mg of each sample, in a pin-holed aluminium pan, was heated at 10° C.·min^−1 from 25° C. to 270° C.
TGA data were collected on a TA Instruments Q500 TGA, equipped with a 16 position auto-sampler. The instrument was temperature calibrated using certified Alumel. Typically 5-30 mg of each sample was loaded onto a pre-tared platinum crucible and aluminium DSC pan, and was heated at 10° C.·min^−1 from ambient temperature to 300° C. A nitrogen purge at 60 ml·min^−1 was maintained over the sample. The instrument control software was Thermal Advantage v4.6.6 and the data were analysed using Universal Analysis v4.3A. Alternatively, TGA data were collected on a Mettler TGA/SDTA 851e equipped with a 34 position auto-sampler. The instrument was temperature calibrated using certified indium. Typically 5-30 mg of each sample was loaded onto a pre-weighed aluminium crucible and was heated at 10° C.·min^−1 from ambient temperature to 300° C. A nitrogen purge at 50 ml·min^−1 was maintained over the sample. The instrument control and data analysis software was STARe v9.01.

[2] = Gravimetric Vapour Sorption (GVS), with XRPD post GVS; settings: for solid form / crystalline pattern by XRPD post GVS: compared with starting material
[3] = Stress tests: storage at elevated temperature and humidity, analysed by XRPD
Experimental: The group three material was stressed under conditions which might cause it to convert to group one material or, indeed, another hydrated or polymorphic form. Thus samples were stored at 40° C./75% RH and also at 60° C./96% RH and analysed at regular intervals by XRPD.
The stability of the maleate salt form A material was tested in harsher conditions, when the samples were kept for a week in the humidity chamber at 60° C. and 96% RH.
The samples of both hydrochloride (comparative) and maleate salts were subjected to X-ray diffraction to determine the characteristic X-ray diffraction pattern. The conditions used were as follows: X-Ray Powder Diffraction patterns were collected on a Siemens D5000 diffractometer using Cu Kα radiation (40 kV, 40 mA), θ-θ goniometer, divergence of V20 and receiving slits, a graphite secondary monochromator and a scintillation counter. The instrument is performance checked using a certified Corundum standard (NIST 1976).

[4] = Maturation studies in 27 solvents, solids analysed by XRPD; settings: 4 h heat/cool cycles 50° C./r.t., 24 h
Experimental: In order to determine the propensity of polymorphism for the maleate salt the material was maturated in 27 different solvents. A small amount of solid was slurried with the corresponding solvent (see Table 4 below) and stored in the incubator and subjected to 4 h-heat/cool cycles at 50° C./r.t. for 24 h. The solvents were then removed under vacuum, and the remaining solids analysed by XRPD.

[5] = Variable temperature X-ray diffraction; settings: variable temperature XRPD
Experimental: Samples run under non-ambient conditions were mounted on a silicon wafer with heat-conducting compound. The sample was then heated to the appropriate temperature at ca. 10° C.·min^−1 and subsequently held isothermally for ca 2 minutes before data collection was initiated. In order to probe the stability of the samples of the maleate salts variable temperature X-ray diffraction was carried out. Thus, the salts were scanned under X-ray diffraction conditions at a series of temperatures and the characteristic peaks determined.

C1=CCOCc2cc(ccc2OCCN2CCCC2)Nc2nccc(n2)-c2cccc(c2)COC1.Cl [Batch HCl 1, 11-(2-pyrrolidin-1-yl-ethoxy)-14,19-dioxa-5,7,26-triaza-tetracyclo[19.3.1.1(2,6).1(8,12)]heptacosa-1(25),2(26),3,5,8,10,12(27),16,21,23-decaene hydrochloride]
two stage weight loss, total ([1]; TGA, up to 100° C.): 4.5%
mass regained on going to 40% RH ([2]; GVS, after dryness): 2%
adsorption of water in the initial adsorption cycle ([2]; GVS, at 90% RH): 5.5%
total gain of mass ([2]; GVS, whole experiment): 2%
water content after the gain ([2]; GVS, corresponds to a dihydrate): 6.5%
mass lost on going from 90% RH to dryness ([2]; GVS, hydrochloride): 5%

C1=CCOCc2cc(ccc2OCCN2CCCC2)Nc2nccc(n2)-c2cccc(c2)COC1.Cl [Batch HCl 2, 11-(2-pyrrolidin-1-yl-ethoxy)-14,19-dioxa-5,7,26-triaza-tetracyclo[19.3.1.1(2,6).1(8,12)]heptacosa-1(25),2(26),3,5,8,10,12(27),16,21,23-decaene hydrochloride]
water lost in the first phase of the TGA ([1]; TGA): 5.6%

C1=CCOCc2cc(ccc2OCCN2CCCC2)Nc2nccc(n2)-c2cccc(c2)COC1.Cl [Batch HCl 3, 11-(2-pyrrolidin-1-yl-ethoxy)-14,19-dioxa-5,7,26-triaza-tetracyclo[19.3.1.1(2,6).1(8,12)]heptacosa-1(25),2(26),3,5,8,10,12(27),16,21,23-decaene hydrochloride]
total weight lost in the TGA ([1]; TGA): 3.4%
another loss ([1]; TGA, at 165° C.): 1.97%
water lost in the first phase of the TGA ([1]; TGA): 1.5%

C1=CCOCc2cc(ccc2OCCN2CCCC2)Nc2nccc(n2)-c2cccc(c2)COC1.Cl [Batch HCl 4, 11-(2-pyrrolidin-1-yl-ethoxy)-14,19-dioxa-5,7,26-triaza-tetracyclo[19.3.1.1(2,6).1(8,12)]heptacosa-1(25),2(26),3,5,8,10,12(27),16,21,23-decaene hydrochloride]
mass lost ([1]; TGA, between ambient and 108° C.): 6.5%
mass gained on going from 40% RH to 90% RH (water absorption) ([2]; GVS): 1.6%
mass lost on going from 90% RH to dryness ([2]; GVS, hydrochloride): 2.8%
solid form / crystalline pattern by XRPD post GVS ([2]; hydrochloride): unchanged

C1=CCOCc2cc(ccc2OCCN2CCCC2)Nc2nccc(n2)-c2cccc(c2)COC1.Cl [Batch HCl 6, 11-(2-pyrrolidin-1-yl-ethoxy)-14,19-dioxa-5,7,26-triaza-tetracyclo[19.3.1.1(2,6).1(8,12)]heptacosa-1(25),2(26),3,5,8,10,12(27),16,21,23-decaene hydrochloride]
weight loss in the TGA ([1]; until degradation at around 240° C.): very little weight loss
mass gained on going from 40% RH to 90% RH (water absorption) ([2]; GVS): 1.6%
mass lost on going from 90% RH to dryness ([2]; GVS, hydrochloride): 2.4%
solid form / crystalline pattern by XRPD post GVS ([2]; hydrochloride): unchanged
solid form by XRPD after storage ([3]; 40° C./75% RH, 0 hrs): Group three.
solid form by XRPD after storage ([3]; 40° C./75% RH, 24 hrs): Group three.
solid form by XRPD after storage ([3]; 40° C./75% RH, 48 hrs): Group three.
solid form by XRPD after storage ([3]; 40° C./75% RH, 72 hrs): Group one.
solid form by XRPD after storage ([3]; 60° C./96% RH, 0 hrs): Group three.
solid form by XRPD after storage ([3]; 60° C./96% RH, 24 hrs): Group one.

C1=C/COCc2cc(ccc2OCCN2CCCC2)Nc2nccc(n2)-c2cccc(c2)COC/1 [maleate salt, 11-(2-pyrrolidin-1-yl-ethoxy)-14,19-dioxa-5,7,26-triaza-tetracyclo[19.3.1.1(2,6).1(8,12)]heptacosa-1(25),2(26),3,5,8,10,12(27),16,21,23-decaene]
weight loss in the TGA ([1]; until the salt melts with decomposition at 200° C.): no weight loss
Solid Form after maturation ([4]; 1,4-dioxane): Form A
Solid Form after maturation ([4]; 1-butanol): Form A
Solid Form after maturation ([4]; 1-pentanol): Form A
Solid Form after maturation ([4]; 1-propanol): Form A
Solid Form after maturation ([4]; 2-butanol): Form A
Solid Form after maturation ([4]; 2-methoxy ethanol): Form A
Solid Form after maturation ([4]; 3-methyl-1-butanol): Form A
solid forms identified after maturation, all cases ([4]; 27 different solvents): only one solid form
Solid Form after maturation ([4]; Acetonitrile): Form A
Solid Form after maturation ([4]; Cyclohexane): Form A
Solid Form after maturation ([4]; DMSO): Form A
Solid Form after maturation ([4]; Dicloromethane): Form A
Solid Form after maturation ([4]; Ethanol): Form A
Solid Form after maturation ([4]; Ethyl acetate): Form A
Solid Form after maturation ([4]; Heptane): Form A
Solid Form after maturation ([4]; IPA): Form A
Solid Form after maturation ([4]; Isobutyl acetate): Form A
Solid Form after maturation ([4]; Isopropyl acetate): Form A
Solid Form after maturation ([4]; Methyl isobutyl ketone): Form A
Solid Form after maturation ([4]; Methylethyl ketone): Form A
Solid Form after maturation ([4]; Nitromethane): Form A
Solid Form after maturation ([4]; Propyl acetate): Form A
Solid Form after maturation ([4]; TBME): Form A
Solid Form after maturation ([4]; Tetrahydrofuran): Form A
Solid Form after maturation ([4]; Toluene): Form A
Solid Form after maturation ([4]; Water): Form A
Solid Form after maturation ([4]; acetone): Form A
Solid Form after maturation ([4]; methanol): Form A
change of X-ray diffraction pattern with temperature [5]: no change
hygroscopicity ([2]; GVS): low hygroscopicity
weight taken up in water ([2]; GVS, between 0 and 90% RH): less than 0.6%
solid form / crystalline pattern by XRPD post GVS [2]: No changes
changes in the crystalline pattern after storage ([3]; a week in the humidity chamber at 60° C. and 96% RH): no changes
